Patent publication US9889099B2, “Method and composition for enhancing milk production” (LAND O'LAKES, INC., priority 1999, dated 2018)

Assays:
[1] = system: lactating cows; assay: Example 1: feeding lactating cows control ration plus about 100 g sorbitol per day, 28 day test period; assay type: in vivo, Holstein cows
Excerpt: In this example, twenty Holstein cows averaging about thirty days in milk each, and thus in early lactation, were arranged in a randomized complete block design. Ten of the twenty cows were orally fed a control ration, and the other ten cows were orally fed a test ration that consisted of the control ration plus about 100 grams of sorbitol per day per cow. The cows were blocked by parity milk production, based upon the level of milk production by individual cows, after being in milk for fifteen to twenty days. After being blocked by parity milk production, the cows were randomly allotted to the control ration feeding or to the test ration feeding. The components of the control ration used in this example are shown in Table 1: The control ration was placed in the feeding troughs of the cattle once daily in the morning. When the test ration was to be provided to the test cattle, sorbitol was top dressed and lightly mixed into the control ration in the feeding trough of each cow being supplied with the test ration dosage of about 100 grams of sorbitol per cow per day, about one hour after the control ration was placed in the feeding trough. Then, the control ration and the test ration were lightly mixed in front of the cows six times per day to encourage additional feed ingestion by the cattle. Leftover rations from the previous day's feeding were collected and weighed from each feeding trough prior to feeding the test cattle the next day. The cows received a sufficient amount of the control ration to ensure that at least about ten weight percent, based upon the amount of control ration provided at the beginning of each day, remained per day for each test cow. The amount of sorbitol that was top dressed in the control ration to form the test ration was adjusted upward to account for the excess of control ration provided to ensure that the cows ingested the test ration dosage of about 100 grams of sorbitol per cow per day. Feed refusals were measured daily, and water was supplied ad libitum. […] Each cow was milked three times daily and the weight of produced milk was recorded at each milking. The milk was sampled once per day (⅓ of the sample volume from each milking) and was analyzed for protein, fat, lactose, and total solids, in accordance with the property determination and characterization techniques presented above. The milk production and milk component data was analyzed using the general linear model (GLM) statistical procedure of SAS® statistical analysis software for a randomized, complete block design that included both the particular feed regimen and the week of the test period in the model statement. […] Additionally, all data was analyzed to determine the mean of the data for each variable under consideration over the entire experimental period. […]

[2] = Passage of orally fed sorbitol through the rumen into the abomasum; assay type: in vivo, ruminant; conditions: within about six to about eight hours after entering the rumen; based on total amount orally fed

- share of orally fed sugar alcohol passing through the rumen into the abomasum [2]: at least 50 weight percent
Compound: OC[C@@H](O)[C@@H](O)[C@H](O)[C@@H](O)CO [sorbitol]
- Dry Matter Intake ([1]; about 100 g sorbitol/day/cow mixed with control ration, mean over 28 days, control 47.2, P 0.54): 45.6 pounds/day/cow
- Milk Production ([1]; about 100 g sorbitol/day/cow mixed with control ration, mean over 28 days, control 88.9, P 0.02): 93.5 pounds/day/cow
- difference in dry matter intake between control ration and test ration (FIG. 1) ([1]; about 100 g sorbitol/day/cow, P 0.54): statistically insignificant
- daily milk production at each weekly data point versus control cows (FIG. 2) ([1]; about 100 g sorbitol/day/cow, weekly means over four weeks): significant increase
